{"source": "patent US8470892B2", "about": "“Method of inducing neovascularization” (priority 2010, dated 2013)", "key": {"[1]": {"tested_on": "complement system", "test": "Dependence of PEG-8 induced CNV on complement: depletion with Cobra Venom Factor", "format": "in vivo, mice", "protocol": "To investigate dependence of PEG-8 induced CNV on complement system activation, the complement system in the mice was depleted by intraperitoneal administration of Cobra Venom Factor. Four groups of animals were used (n=5 mice in each group). Group 1 and 2 were treated intraperitoneal with 4 U of cobra venom factor as described in the inventors' previous publication for 2 days before and every day after subretinal injections. Group 3 and 4 were injected intraperitoneal with vehicle (0.9% Sodium Chloride).\nThe mice were then injected with subretinal PEG-8 and investigated at day 5 after treatment. […] RPE-choroids of these mice were stained for MAC by IHC and investigated flat mounts using confocal microscopy. Areas of high MAC deposition in animals treated with saline (FIG. 4B) were found but not in CVF treated group (FIG. 4C)."}, "[2]": {"tested_on": "Male C57BL/6 mice", "test": "CNV induction by subretinal injection of PEG-8 (FITC-dextran perfused RPE-choroid-sclera flat mounts)", "format": "in vivo", "protocol": "Male C57BL/6 mice (7-9 weeks old) were anesthetized with Ketamine (80 mg/kg) and Xylazine (20 mg/kg) prior to subretinal injection. One eye was decompressed with 27G needle by inserting the needle through the limbus and sclera. Microinjector UMP3 equipped with Nanofil syringe 100 μL and 33G blunt needle (Word Precision Instruments) was used for injections. The needle was inserted into the incision created by decompression. Movement of the needle was stopped when light resistance was felt by operator. Solutions (single injection of 2 μL) were injected slowly for 5 seconds in the subretinal space. All manipulations were performed under visual control using microscope. Detachment of the retina was visible through the lens. The second eyes of mice were not injected.\nTo investigate dose dependent effect of PEG-8 (Polyethylene glycol 400) the inventors divided the animals into 7 groups: one control group (n=3 mice) which was not treated at all, group 2 (n=3 mice) received a single subretinal injection of vehicle (2 μL of 0.9% sterile sodium chloride), and five experimental groups which were injected with different doses of PEG-8: 2.0 mg, 1.0 mg, 0.5 mg, 0.25 mg and 0.125 mg. PEG-8 was dissolved in vehicle before injection. Doses of PEG-8 were delivered to the one experimental eye in 2 μL respectively. To determine optimal dose of PEG-8, the inventors performed histological examination and investigation of flat mounted RPE-choroid-sclera complexes after perfusion of animals with FITC-dextran solution at day 14 after injection.\nTo investigate the time course of CNV after PEG-injection, the animals were injected with 1.0 mg of PEG-8 subretinally and 5 mice from each group were sacrificed at day 1, 3, 5, 7, 14, 21, 28, and 42 post-injection. […] CNV reached maximal size at day 5 and was present until at least day 42.\nTo evaluate the CNV size, the animals were perfused through their heart with 0.75 ml of phosphate-buffered saline (PBS) containing 50 mg/ml of fluorescein-labeled dextran (FITC-Dextran, 2 million average mw) before they were sacrificed. The eyes were harvested and fixed for 4 hours in 10% phosphate buffered formalin and RPE-choroid-sclera flat mounts were prepared. The RPE-choroid-sclera complexes were mounted in ProLong Antifade reagent with the sclera facing down and were examined under a ZEISS LSM 510 laser confocal microscope.\nConfocal microscopy of flat mounted RPE-choroids perfused with FITC-dextran was performed and investigated with semi thin (1 μm) embedded sections at day 5 after injection when CNV was fully developed. […] After PEG-8 injection, CNV was located between two layers of RPE cells in subretinal space (FIGS. 3B, D, F). No vessels originated from retina was found (FIG. 3D). 5 μm paraffin section of control (saline) and PEG-8 injected mice at day 1 were investigated, 3 and 5 after treatment. RPE cells in control groups formed single layer of cells and endothelial cells were found within choroid (FIG. 3G). Starting from day 1 after PEG-8 treatment, zones of affected RPE cell structure were discovered with increased size, irregular shape and presence of space between neighboring RPE cells (FIG. 3H). Isolectin-IB4 positively labeled cells located between affected RPE cells were found at day 1, 3 and 5 after injection (FIGS. 3H-J). Isolectin-IB4 positive had contact with choroidal Isolectin-IB4 positive capillaries and formed vessels in subretinal tissue between existing and newly formed RPE cell layers (FIG. 3J)."}, "[3]": {"tested_on": "complement system", "test": "Activation of the complement system by PEG-8 in serum and RPE-choroid", "format": "in vivo, mice", "protocol": "Activation of the complement system by PEG-8 was also studied in the RPE-choroid and in the blood. PEG-8 or saline was injected subretinally and animals were sacrificed at day 1, 3 and 5 after treatment. Total complement activation was studied in the serum. Levels of C3 split products and MAC were investigated in RPE-choroid tissue. […] PEG-8 and saline injected animals at day 3 and 5 had the same levels of total C3 (43 kDa and 23 kDA), but levels of C3 (43 kDa) were higher in PEG-8 treated animals compared to saline injected mice (FIGS. 5C, D)."}, "[4]": {"tested_on": "VEGF", "test": "VEGF levels by ELISA in posterior part of the eyes after PEG-8", "format": "in vivo, mice"}, "[5]": {"conditions": "subretinal PEG-8, day 1, 3 and 5"}}}
{"substance": "CVF", "values": [{"measurement": "total complement activity in serum vs saline injected animals", "setting": "[1]; 4 U CVF intraperitoneal, day 5 after subretinal PEG-8, p<0.05", "result": "significantly reduced"}, {"measurement": "reduction of CNV size (area of FITC-dextran perfused vessels)", "setting": "[1]; CVF intraperitoneal, PEG-8 induced CNV, day 5, p<0.05", "result": 3, "unit": "fold"}, {"measurement": "MAC positive fluorescence in RPE-choroid, saline treated animals compared to CVF injected mice", "setting": "[1]; IHC flat mounts, day 5, p<0.05", "result": "significantly higher"}]}
{"substance": "Polyethylene glycol 400 [PEG-8]", "values": [{"measurement": "CNV size and frequency compared between doses", "setting": "[2]; 1.0 mg dose, day 14", "result": "largest size and frequency"}, {"measurement": "frequency of CNV", "setting": "[2]; 1.0 mg subretinal, day 14 after injection", "result": "4.4 sites of CNV per eye"}, {"measurement": "CNV present until", "setting": "[2]; 1.0 mg subretinal, time course", "result": "≥ 42", "unit": "days"}, {"measurement": "first signs of CNV detected", "setting": "[2]; 1.0 mg subretinal, time course", "result": 3, "unit": "days"}, {"measurement": "time at which CNV reached maximal size", "setting": "[2]; 1.0 mg subretinal, time course", "result": 5, "unit": "days"}, {"measurement": "damage of RPE-choroid after subretinal injection", "setting": "[2]; compared to laser treatment or surgical procedures", "result": "much smaller"}, {"measurement": "occurrence of CNV", "setting": "[2]; doses 2.0, 1.0, 0.5, 0.25 and 0.125 mg subretinal, day 14", "result": "CNV in all investigated groups"}, {"measurement": "MAC levels in RPE-choroid vs saline treated animals (Western blotting)", "setting": "[3]; all investigated time points (day 1, 3, 5)", "result": "approximately three fold higher"}, {"measurement": "C3 split products levels in RPE-choroid vs saline injected mice", "setting": "[3]; day 1 post-injection only", "result": "three-fold increase"}, {"measurement": "levels of C3 (43 kDa) vs saline injected mice", "setting": "[3]; day 3 and 5", "result": "higher"}, {"measurement": "levels of total C3 (43 kDa and 23 kDA) vs saline", "setting": "[3]; day 3 and 5", "result": "same levels"}, {"measurement": "alternative complement activity in mouse serum", "setting": "[3]; [5]", "result": "did not affect"}, {"measurement": "total complement activity in mouse serum", "setting": "[3]; [5]", "result": "did not affect"}, {"measurement": "VEGF in intra- and extracellular fraction of proteins from posterior part of the eyes", "setting": "[4]", "result": "increase of VEGF"}]}
